Tests used:
[1] = test system: mAb SH2; experiment: Indirect titration ELISA of SH2 ascites against coated glycoconjugates; assay type: binding, mouse; details: for Binding of SH2 to coated antigen (titration, in words): antigens coated at 10 μg/mL, 2 and 5 also at 20 µg/mL (not shown)
Procedure: MaxiSorp NUNC 96-well enzyme-linked immunosorbent assay (ELISA) microtiter plate (Thermo Fisher Scientific) was coated with a dilution of glycoconjugates 1–5 and BSA (100 μL per well, […]) in a 10 mM phosphate-buffered saline (PBS) solution at pH 7.1. The plate was covered with sealing tape and incubated at 4 °C overnight. The antigen solution was discarded, and the plate was washed (using ELx405 auto plate washer, 5 × 15 s) with a 10 mM PBS buffer at pH 7.3 containing 0.05% Tween 20. The plate was blocked with 0.05% skim milk in 10 mM PBS (300 μL per well) and incubated for 1 h at 37 °C. The plate was then washed with 10 mM PBS-0.05% Tween 20. A 1:100 dilution of SH2 ascites was prepared and 146 μL of the dilution was distributed in the wells corresponding to the primary dilution. All other wells received 100 μL of the 10 mM PBS-0.05% Tween 20 pH 7.3 buffer. In-plate serial dilutions were performed in which 46 μL of the primary dilution was pipetted downward along the rows. The well contents were mixed by rinsing the pipette tips (7×). Lastly, 46 μL of the mAb solution was removed and discarded from the wells, which received the final solution of mAb (final volume in all wells, 100 μL). The last row of the 96-well plate was used as the blank control. MAb SH2 ascites were not pipetted into these wells, rather 100 μL of 10 mM PBS-0.05% Tween 20 was added. The plate was incubated for 2 h at 23 °C (in the dark). The plate was subsequently washed using the plate washer with PBS-0.05% Tween 20. A dilution of commercially available horseradish peroxidase labeled goat anti-mouse antibody (Mandel Scientific) (1:5000 in 10 mM PBS-0.05% Tween 20, 100 μL per well) was added to each well. After 1 h of incubation at 23 °C (in the dark), the plate was washed with PBS-0.05% Tween 20. A solution of the chromogenic substrate 3,3′,5,5′-tetramethylbenzidine (TMB) (Mandel Scientific) (100 μL per well) was added. After a 10 min incubation period at 23 °C (in the dark), 100 μL of 5% Phosphoric Acid stop solution was added to the wells to quench the reaction. The absorbance values were read at 450 nm employing a PowerWave XS plate reader. All samples were prepared in triplicate. The absorbance values were plotted against an increasing serum dilution. The values were fitted to a 4-parameter logistics sigmoidal equation: y = y0 + a/[1 + (x/x0)^b] using Sigma Plot®® 10.0.

[2] = test system: mAb SH2; experiment: Competitive ELISA: inhibition of mAb SH2 binding to immobilized (DimLe^x)16-BSA conjugate 1; set-up: species or system mouse; details: (DimLe^x)16-BSA 1 immobilized; SH2 serum dilution 1:500 (Figure 5)
Procedure: A MaxiSorp NUNC 96-well ELISA microtiter plate was coated with a dilution of the (DimLe^x)16-BSA conjugate 1 (100 μL per well, 5 μg/mL) in a 10 mM PBS solution at pH 7.1. The plate was covered with sealing tape and incubated at 4 °C overnight. The antigen solution was discarded, and the plate was washed (using ELx405 auto plate washer, 5 × 15 s) with a 10 mM PBS buffer at pH 7.3 containing 0.05% Tween 20. In 1.5 mL Eppendorf tubes, 175 μL dilutions of competitors (concentration ranging from 0.632 mg/mL to 2 mg/mL in 10 mM PBS-0.05% Tween 20) were incubated for 1 h at 23 °C (in the dark) with 175 μL of a solution of SH2 ascites (1:500 dilution in 10 mM PBS-0.05% Tween 20). At the same time, the plate was blocked with 0.05% skim milk in PBS (300 μL per well). After 1 h of incubation at 37 °C, the plate was washed with 10 mM PBS-0.05% Tween 20. Each well then received 100 μL of the competitor-mAb mixture. Three wells were used as the blank control in which the competitor-mAb mixture was not added, rather received 100 μL of 10 mM PBS-0.05% Tween 20. The plate was incubated for 3 h at 23 °C (in the dark). The plate was subsequently washed using the plate washer with PBS-0.05% Tween 20. A dilution of commercially available horseradish peroxidase labeled goat anti-mouse antibody (1:5000 in 10 mM PBS-0.05% Tween 20, 100 μL per well) was added to each well. After 1 h of incubation at 23 °C (in the dark), the plate was washed with 10 mM PBS-0.05% Tween 20. A solution of the chromogenic substrate TMB (100 μL per well) was added. After a 10 min incubation period at 23 °C (in the dark), 100 μL of 5% Phosphoric Acid stop solution was added to the wells to quench the reaction. The absorbance values were read at 450 nm employing a PowerWave XS plate reader. All samples were prepared in triplicate. The absorbance values were plotted as the percentage inhibition against an increasing concentration of competitor, calculated using wells containing no competitor as the reference point. The values were fitted to a 4-parameter logistics sigmoidal equation: y = y0 + a/[1 + (x/x0)^b] using Sigma Plot 10.0. The concentration of each analogue required for 50% inhibition (IC50) of Le^x-SH2 binding and the corresponding changes in free energy Δ(ΔG) of binding (kcal·mol^−1) using DimLe^xOPr 6 (Table 1) or Le^xOMe 7 (Table 2) as the reference were calculated.

Row | Substance | Binding of SH2 to coated antigen (titration, in words) [1] | Inhibition of SH2 binding to (DimLe^x)16-BSA by glycoconjugates as soluble inhibitors (in words) [2] | Titration curve of SH2 (in words) ([1]; coating with 3 µg/mL of the conjugate (Figure S1))
1 | (DimLe^x)6-TT [compound 2] | very little binding |  | 
2 | (DimLe^x)16-BSA [compound 1] |  | able to inhibit binding | did not reach maximum optical density
3 | (GDimLe^x)16-BSA [compound 5] | no binding |  | 
4 | (Le^x)10-BSA [compound 3] | no binding | did not | 
5 | (Le^x)35-BSA [compound 4] | weakly binds | did not | 
6 | bovine serum albumin [BSA, reference compound] | no affinity |  | 
